Laboratory results taken from ChEMBL document CHEMBL5727726, “Pyridine sulfonamides” (2020).

Assay: Nav 1.7In Vitro PX Assay: HEK 293 cells stably transfected with human Nav1.7 were recorded in whole cell voltage clamp mode with the PatchXpress automated electrophysiology system (Molecular Devices, LLC, Sunnyvale, Calif.). Compound effects were measured on a partially inactivated state of the sodium channel. Cells were clamped to a holding potential yielding 20 to 50% inactivation. To elicit sodium current, channels were activated by pulsing to −10 mV for 20 msec. This voltage protocol was repeated at a rate of 0.1 Hz throughout the experiment. A single concentration of test compound was applied to cells for a duration of 3 minutes. Peak sodium current was measured at the end of the compound addition period to determine percent inhibition. Three to five cells were tested per concentration, and IC50 curves were fitted to percent inhibition as a function of concentration.
Conditions: HEK293

| SMILES | IC50 |
| --- | --- |
| CNC(=O)N(c1ccc(S(=O)(=O)Nc2ccon2)cn1)c1cc(Cl)c(-c2cc(F)cc(Cl)c2)cc1OC | 28 nM |
| CNC(=O)N(c1ccc(S(=O)(=O)Nc2ccon2)cn1)c1cc(F)c(-c2cc(F)c(F)c(F)c2)cc1OC | 86 nM |
